ChEMBL document CHEMBL1275453, “Resistance trends of the Bacteroides fragilis group over a 10-year period, 1997 to 2006, in Madrid, Spain” (2008)
≈ marks a conversion by molar mass, not a printed value.

Tests used:
Format in all cases: functional
[1] = test system: Phocaeicola vulgatus; assay: Antibacterial activity against Bacteroides vulgatus assessed as percent resistant isolates by agar dilution method in presence of clavulanate
[2] = test system: Bacteroides thetaiotaomicron; assay: Antibacterial activity against Bacteroides thetaiotaomicron isolate by agar dilution method in presence of clavulanate
[3] = test system: Bacteroides fragilis; assay: Antibacterial activity against Bacteroides fragilis assessed as percent resistant isolates by agar dilution method in presence of clavulanate
[4] = test system: Bacteroides ovatus; assay: Antibacterial activity against Bacteroides ovatus isolate by agar dilution method in presence of clavulanate
[5] = test system: Bacteroides fragilis; assay: Antibacterial activity against Bacteroides fragilis isolate by agar dilution method in presence of clavulanate
[6] = test system: Bacteroides stercoris; assay: Antibacterial activity against Bacteroides stercoris isolate by agar dilution method in presence of clavulanate
[7] = test system: Bacteroides eggerthii; assay: Antibacterial activity against Bacteroides eggerthii isolate by agar dilution method in presence of clavulanate
[8] = test system: Bacteroides sp.; assay: Antibacterial activity against Bacteroides spp. isolate by agar dilution method in presence of clavulanate
[9] = test system: Phocaeicola vulgatus; assay: Antibacterial activity against Bacteroides vulgatus isolate by agar dilution method in presence of clavulanate
[10] = test system: Parabacteroides merdae; assay: Antibacterial activity against Bacteroides merdae isolate by agar dilution method in presence of clavulanate
[11] = test system: Bacteroides uniformis; assay: Antibacterial activity against Bacteroides uniformis isolate by agar dilution method in presence of clavulanate
[12] = test system: Parabacteroides distasonis; assay: Antibacterial activity against Bacteroides distasonis assessed as percent resistant isolates by agar dilution method in presence of clavulanate
[13] = test system: Bacteroides uniformis; assay: Antibacterial activity against Bacteroides uniformis assessed as percent resistant isolates by agar dilution method in presence of clavulanate
[14] = test system: Bacteroides thetaiotaomicron; assay: Antibacterial activity against Bacteroides thetaiotaomicron assessed as percent resistant isolates by agar dilution me in presence of clavulanate thod
[15] = test system: Bacteroides caccae; assay: Antibacterial activity against Bacteroides caccae isolate by agar dilution method in presence of clavulanate
[16] = test system: Parabacteroides distasonis; assay: Antibacterial activity against Bacteroides distasonis isolate by agar dilution method in presence of clavulanate
[17] = test system: Bacteroides caccae; assay: Antibacterial activity against Bacteroides caccae assessed as percent resistant isolates by agar dilution method in presence of clavulanate
[18] = test system: Bacteroides ovatus; assay: Antibacterial activity against Bacteroides ovatus assessed as percent resistant isolates by agar dilution method in presence of clavulanate
[19] = test system: Bacteroides sp.; assay: Antibacterial activity against Bacteroides spp. assessed as percent resistant isolates by agar dilution method in presence of clavulanate; settings: pooled result: one value given for 4 cell lines, strains, targets or settings
[20] = test system: Parabacteroides distasonis; assay: Antibacterial activity against Bacteroides distasonis isolate by agar dilution method
[21] = test system: Bacteroides ovatus; assay: Antibacterial activity against Bacteroides ovatus isolate by agar dilution method
[22] = test system: Bacteroides eggerthii; assay: Antibacterial activity against Bacteroides eggerthii isolate by agar dilution method
[23] = test system: Bacteroides sp.; assay: Antibacterial activity against Bacteroides spp. isolate by agar dilution method
[24] = test system: Bacteroides stercoris; assay: Antibacterial activity against Bacteroides stercoris assessed as percent resistant isolates by agar dilution method; settings: pooled result: one value given for 4 cell lines, strains, targets or settings
[25] = test system: Phocaeicola vulgatus; assay: Antibacterial activity against Bacteroides vulgatus assessed as percent resistant isolates
[26] = test system: Bacteroides fragilis; assay: Antibacterial activity against Bacteroides fragilis assessed as percent resistant isolates by agar dilution method
[27] = test system: Bacteroides ovatus; assay: Antibacterial activity against Bacteroides ovatus assessed as percent resistant isolates by agar dilution method
[28] = test system: Phocaeicola vulgatus; assay: Antibacterial activity against Bacteroides vulgatus isolate by agar dilution method
[29] = test system: Bacteroides fragilis; assay: Antibacterial activity against Bacteroides fragilis assessed as percent resistant isolates
[30] = test system: Parabacteroides merdae; assay: Antibacterial activity against Bacteroides merdae isolate by agar dilution method
[31] = test system: Bacteroides caccae; assay: Antibacterial activity against Bacteroides caccae assessed as percent resistant isolates by agar dilution method
[32] = test system: Bacteroides thetaiotaomicron; assay: Antibacterial activity against Bacteroides thetaiotaomicron assessed as percent resistant isolates by agar dilution method
[33] = test system: Bacteroides uniformis; assay: Antibacterial activity against Bacteroides uniformis isolate by agar dilution method
[34] = test system: Bacteroides thetaiotaomicron; assay: Antibacterial activity against Bacteroides thetaiotaomicron isolate by agar dilution method
[35] = test system: Phocaeicola vulgatus; assay: Antibacterial activity against Bacteroides vulgatus assessed as percent resistant isolates by agar dilution method
[36] = test system: Bacteroides stercoris; assay: Antibacterial activity against Bacteroides stercoris isolate by agar dilution method
[37] = test system: Bacteroides uniformis; assay: Antibacterial activity against Bacteroides uniformis assessed as percent resistant isolates by agar dilution method
[38] = test system: Parabacteroides distasonis; assay: Antibacterial activity against Bacteroides distasonis assessed as percent resistant isolates by agar dilution method
[39] = test system: Bacteroides caccae; assay: Antibacterial activity against Bacteroides caccae isolate by agar dilution method
[40] = test system: Bacteroides caccae; assay: Antibacterial activity against Bacteroides caccae isolate by agar dilution method in presence of Tazobactam
[41] = test system: Parabacteroides merdae; assay: Antibacterial activity against Bacteroides merdae assessed as percent resistant isolates by agar dilution method in presence of Tazobactam
[42] = test system: Bacteroides uniformis; assay: Antibacterial activity against Bacteroides uniformis isolate by agar dilution method in presence of Tazobactam
[43] = test system: Bacteroides sp.; assay: Antibacterial activity against Bacteroides spp. assessed as percent resistant isolates by agar dilution method in presence of Tazobactam
[44] = test system: Bacteroides ovatus; assay: Antibacterial activity against Bacteroides ovatus isolate by agar dilution method in presence of Tazobactam
[45] = test system: Phocaeicola vulgatus; assay: Antibacterial activity against Bacteroides vulgatus assessed as percent resistant isolates by agar dilution method in presence of Tazobactam
[46] = test system: Bacteroides caccae; assay: Antibacterial activity against Bacteroides caccae assessed as percent resistant isolates by agar dilution method in presence of Tazobactam
[47] = test system: Bacteroides fragilis; assay: Antibacterial activity against Bacteroides fragilis assessed as percent resistant isolates by agar dilution method in presence of Tazobactam
[48] = test system: Bacteroides thetaiotaomicron; assay: Antibacterial activity against Bacteroides thetaiotaomicron isolate by agar dilution method in presence of Tazobactam
[49] = test system: Bacteroides stercoris; assay: Antibacterial activity against Bacteroides stercoris isolate by agar dilution method in presence of Tazobactam
[50] = test system: Bacteroides stercoris; assay: Antibacterial activity against Bacteroides stercoris assessed as percent resistant isolates by agar dilution method in presence of Tazobactam
[51] = test system: Parabacteroides distasonis; assay: Antibacterial activity against Bacteroides distasonis assessed as percent resistant isolates by agar dilution method in presence of Tazobactam
[52] = test system: Bacteroides ovatus; assay: Antibacterial activity against Bacteroides ovatus assessed as percent resistant isolates by agar dilution method in presence of Tazobactam
[53] = test system: Bacteroides thetaiotaomicron; assay: Antibacterial activity against Bacteroides thetaiotaomicron assessed as percent resistant isolates by agar dilution me in presence of Tazobactam thod
[54] = test system: Parabacteroides distasonis; assay: Antibacterial activity against Bacteroides distasonis isolate by agar dilution method in presence of Tazobactam
[55] = test system: Bacteroides fragilis; assay: Antibacterial activity against Bacteroides fragilis isolate by agar dilution method in presence of Tazobactam
[56] = test system: Parabacteroides merdae; assay: Antibacterial activity against Bacteroides merdae isolate by agar dilution method in presence of Tazobactam
[57] = test system: Bacteroides uniformis; assay: Antibacterial activity against Bacteroides uniformis assessed as percent resistant isolates by agar dilution method in presence of Tazobactam
[58] = test system: Phocaeicola vulgatus; assay: Antibacterial activity against Bacteroides vulgatus isolate by agar dilution method in presence of Tazobactam
[59] = test system: Bacteroides sp.; assay: Antibacterial activity against Bacteroides spp. isolate by agar dilution method in presence of Tazobactam
[60] = test system: Bacteroides eggerthii; assay: Antibacterial activity against Bacteroides eggerthii assessed as percent resistant isolates by agar dilution method in presence of Tazobactam
[61] = test system: Bacteroides eggerthii; assay: Antibacterial activity against Bacteroides eggerthii isolate by agar dilution method in presence of Tazobactam

CC1(C)S[C@@H]2[C@H](NC(=O)[C@H](N)c3ccc(O)cc3)C(=O)N2[C@H]1C(=O)O [AMOXICILLIN]
Activity [1]: 21.3%
MIC50 [2]: 2 µg/mL
MIC90 [2]: 16 µg/mL
Activity [3]: 6.2%
MIC50 [4]: 1 µg/mL
MIC90 [4]: 16 µg/mL
MIC50 [5]: 1 µg/mL
MIC90 [5]: 8 µg/mL
MIC50 [6]: 2 µg/mL
MIC90 [6]: 16 µg/mL
MIC50 [7]: 2 µg/mL
MIC90 [7]: 16 µg/mL
MIC50 [8]: 2 µg/mL
MIC90 [8]: 16 µg/mL
MIC50 [9]: 2 µg/mL
MIC90 [9]: 16 µg/mL
MIC50 [10]: 2 µg/mL
MIC90 [10]: 16 µg/mL
MIC50 [11]: 1 µg/mL
MIC90 [11]: 16 µg/mL
Activity [12]: 16.3%
Activity [13]: 12.3%
Activity [14]: 4.9%
MIC50 [15]: 2 µg/mL
MIC90 [15]: 16 µg/mL
MIC50 [16]: 4 µg/mL
MIC90 [16]: 16 µg/mL
Activity [17]: 20%
Activity [18]: 17.1%
Activity [19]: 19.6%

COc1c(N2C[C@@H]3CCCN[C@@H]3C2)c(F)cc2c(=O)c(C(=O)O)cn(C3CC3)c12 [MOXIFLOXACIN]
MIC50 [20]: 1 µg/mL (≈ 2.49 µM)
MIC90 [20]: 16 µg/mL (≈ 39.9 µM)
MIC50 [21]: 2 µg/mL (≈ 4.98 µM)
MIC90 [21]: 32 µg/mL (≈ 79.7 µM)
MIC50 [22]: 2 µg/mL (≈ 4.98 µM)
MIC90 [22]: 16 µg/mL (≈ 39.9 µM)
MIC50 [23]: 2 µg/mL (≈ 4.98 µM)
MIC90 [23]: 16 µg/mL (≈ 39.9 µM)
Activity [24]: 28.3%
Activity [25]: 54.7%
Activity [26]: 9.7%
Activity [27]: 24.4%
MIC50 [28]: 2 µg/mL (≈ 4.98 µM)
MIC90 [28]: 16 µg/mL (≈ 39.9 µM)
Activity [29]: 27.3%
MIC50 [30]: 2 µg/mL (≈ 4.98 µM)
MIC90 [30]: 16 µg/mL (≈ 39.9 µM)
Activity [31]: 22.2%
Activity [32]: 17%
MIC50 [33]: 2 µg/mL (≈ 4.98 µM)
MIC90 [33]: 32 µg/mL (≈ 79.7 µM)
MIC50 [34]: 2 µg/mL (≈ 4.98 µM)
MIC90 [34]: 16 µg/mL (≈ 39.9 µM)
Activity [35]: 17%
MIC50 [36]: 2 µg/mL (≈ 4.98 µM)
MIC90 [36]: 16 µg/mL (≈ 39.9 µM)
Activity [37]: 24.5%
Activity [38]: 18.6%
MIC50 [39]: 2 µg/mL (≈ 4.98 µM)
MIC90 [39]: 32 µg/mL (≈ 79.7 µM)

CCN1CCN(C(=O)N[C@@H](C(=O)N[C@@H]2C(=O)N3[C@@H]2SC(C)(C)[C@@H]3C(=O)O)c2ccccc2)C(=O)C1=O [PIPERACILLIN]
MIC50 [40]: 8 µg/mL
MIC90 [40]: 32 µg/mL
Activity [41]: 0%
MIC50 [42]: 4 µg/mL
MIC90 [42]: 16 µg/mL
Activity [43]: 0%
MIC50 [44]: 8 µg/mL
MIC90 [44]: 16 µg/mL
Activity [45]: 0%
Activity [46]: 2.2%
Activity [47]: 0.5%
MIC50 [48]: 16 µg/mL
MIC90 [48]: 32 µg/mL
MIC50 [49]: 8 µg/mL
MIC90 [49]: 32 µg/mL
Activity [50]: 0%
Activity [51]: 0%
Activity [52]: 0%
Activity [53]: 3.3%
MIC50 [54]: 16 µg/mL
MIC90 [54]: 16 µg/mL
MIC50 [55]: 1 µg/mL
MIC90 [55]: 8 µg/mL
MIC50 [56]: 8 µg/mL
MIC90 [56]: 32 µg/mL
Activity [57]: 0%
MIC50 [58]: 8 µg/mL
MIC90 [58]: 32 µg/mL
MIC50 [59]: 8 µg/mL
MIC90 [59]: 32 µg/mL
Activity [60]: 0%
MIC50 [61]: 8 µg/mL
MIC90 [61]: 32 µg/mL
